Measured values from US20210221848A1, “POLYMYXIN DERIVATIVES AND THEIR USE IN COMBINATION THERAPY TOGETHER WITH DIFFERENT ANTIBIOTICS” (priority 2014, published 2021).

Legend:
[1] = tested on: E. coli; assay: MIC in the presence of a fixed concentration (2 μg/mL) of Rifampicin; type: cell-based, Escherichia coli; conditions: Rifampicin 2 μg/mL
[2] = tested on: K. pneumoniae; assay: as above; type: cell-based, Klebsiella pneumoniae; conditions: Rifampicin 2 μg/mL
[3] = tested on: A. baumannii; assay: MIC in the presence of […] of rifampicin; type: cell-based, Acinetobacter baumannii
[4] = tested on: HK-2 cell line; assay: In vitro renal cell toxicity assay (resazurin reduction)
Experimental: MICs were determined as described herein. HK-2 cell IC50 values were determined as described herein. Values are reported relative to Polymyxin B.

[5] = tested on: P. aeruginosa ATCC 27853; assay: In vivo efficacy, thigh infection in mice, IV dosing, 9 h model; set-up: species or system Pseudomonas aeruginosa; conditions: mouse thigh, dose 3.4 mg/kg drug base IV at 1, 3.5 and 6 h post-infection
Experimental: Compounds were administered in solution by intravenous (IV) bolus injection into the lateral tail vein. […] At 1 hour post infection, 4 animals were humanely euthanized using pentabarbitone overdose to provide a pre-treatment control group. At 9 hours post infection, the clinical condition of all animals was assessed prior to them being humanely euthanized by pentabarbitone overdose. Animal weight was determined before both thighs were removed and weighed individually. Individual thigh tissue samples were homogenized in ice cold sterile phosphate buffered saline. Thigh homogenates were then quantitatively cultured onto cystine lactose electrolyte deficient (CLED) agar and incubated at 37° C. for 24 hours before colonies were counted.

[6] = tested on: E. coli; conditions: absence of a second agent, Table 6B
[7] = tested on: P. aeruginosa; conditions: absence of a second agent, Table 6B
[8] = tested on: A. baumannii; conditions: absence of a second agent, Table 6B
[9] = tested on: K. pneumoniae; conditions: absence of a second agent, Table 6B
[10] = tested on: Escherichia coli ATCC 25922; conditions: mouse thigh, 1.47 mg/kg/dose free base IV at 1, 3.5 and 6 h post-infection, 9 h model

1,2,3,4- tetrahydroisoquinoline- 4-carbonyl polymyxin B nonapeptide [Example D15]
MIC in combination with Rifampicin, E. coli ATCC 25922 ([1]; Table 5C): ≤0.015 micrograms/mL | MIC in combination with Rifampicin, E. coli ATCC 25922 ([1]; Table 5D): ≤0.015 micrograms/mL | MIC in combination with Rifampicin, E. coli NCTC 13441 ([1]; Table 5C): 0.03 micrograms/mL | MIC in combination with Rifampicin, E. coli NCTC 13441 ([1]; Table 5D): 0.03 micrograms/mL | MIC in combination with Rifampicin, K. pneumoniae ATCC 4352 ([2]; Table 5C): 0.03 micrograms/mL | MIC in combination with Rifampicin, K. pneumoniae ATCC 4352 ([2]; Table 5D): ≤0.015 micrograms/mL | MIC in combination with Rifampicin, K. pneumoniae ATCC BAA-2146 ([2]; Table 5C): 0.125 micrograms/mL | MIC in combination with Rifampicin, K. pneumoniae ATCC BAA-2146 ([2]; Table 5D): 0.125 micrograms/mL | MIC in combination with Rifampicin, A. baumannii ATCC BAA-747 ([3]; A. baumannii ATCC BAA-747, Table 5C): ≤0.015 micrograms/mL | MIC in combination with Rifampicin, A. baumannii ATCC BAA-747 ([3]; A. baumannii ATCC BAA-747, Table 5D): ≤0.015 micrograms/mL | MIC in combination with Rifampicin, A. baumannii NCTC 13424 ([3]; A. baumannii NCTC 13424, Table 5C): ≤0.015 micrograms/mL | MIC in combination with Rifampicin, A. baumannii NCTC 13424 ([3]; A. baumannii NCTC 13424, Table 5D): ≤0.015 micrograms/mL | HK-2 IC50 rel to PMB [4]: 17 | Log reduction from vehicle (CFU/g) [5]: 3.89 log10 CFU/g | MIC, E. coli ATCC 25922 [6]: 0.25 micrograms/mL | MIC, E. coli NCTC 13441 [6]: 0.5 micrograms/mL | MIC, P. aeruginosa ATCC 27853 [7]: 0.25 micrograms/mL | MIC, P. aeruginosa CCUG 59347 [7]: 0.5 micrograms/mL | MIC, A. baumannii ATCC BAA-747 [8]: 2 micrograms/mL | MIC, A. baumannii NCTC 13424 [8]: 2 micrograms/mL

(S)-1-benzyl piperazine-2-carbonyl polymyxin B nonapeptide [Example D52]
MIC, E. coli ATCC 25922 [6]: 0.125 micrograms/mL | MIC, E. coli NCTC 13441 [6]: 0.125 micrograms/mL | MIC, K. pneumoniae ATCC 4352 ([9]; K. pneumoniae ATCC 4352): 0.125 micrograms/mL | MIC, K. pneumoniae ATCC BAA-2146 ([9]; K. pneumoniae ATCC BAA-2146): 0.25 micrograms/mL | MIC, P. aeruginosa ATCC 27853 [7]: 0.5 micrograms/mL | MIC, P. aeruginosa CCUG 59347 [7]: 0.5 micrograms/mL | MIC, A. baumannii ATCC BAA-747 [8]: 0.5 micrograms/mL | MIC, A. baumannii NCTC 13424 [8]: 0.25 micrograms/mL | Mean log10 CFU reduction vs. control [10]: 4.04 log10 CFU
